Results taken from PubChem BioAssay AID248 (DTP/NCI, 2004).
Where “and” joins values, the source holds several entries; their conditions need not be identical. Equal entries are not always repeated. Inconclusive results and toxic doses are left out.

Test system: L1210 leukemia ip in BDF1 mice, survival T/C
Test: NCI In Vivo Anticancer Drug Screen. Data for tumor model L1210 Leukemia (intraperitoneal) in B6D2F1 (BDF1) mice
Conditions: endpoint: mean survival time, higher = longer survival
Procedure, shortened: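 Mice bearing the transplanted tumor received compound or vehicle. Survival of the treated group was divided by that of the vehicle-treated control group to give the ratio.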

[1] = dose: 100.0 mg/kg/injection, schedule: Q01DX009 (ip), vehicle: saline with Tween-80
[2] = dose: 200.0 mg/kg/injection, schedule: Q01DX009 (ip), vehicle: saline with Tween-80
[3] = dose: 400.0 mg/kg/injection, schedule: Q01DX009 (ip), vehicle: saline with Tween-80
[4] = dose: 100.0 mg/kg/injection, schedule: Q04DX003 (ip), vehicle: Klucel (hydroxypropylcellulose) (HPC)
[5] = dose: 200.0 mg/kg/injection, schedule: Q04DX003 (ip), vehicle: Klucel (hydroxypropylcellulose) (HPC)
[6] = dose: 400.0 mg/kg/injection, schedule: Q04DX003 (ip), vehicle: Klucel (hydroxypropylcellulose) (HPC)
[7] = dose: 100.0 mg/kg/injection, schedule: Q04DX003 (ip), vehicle: saline
[8] = dose: 200.0 mg/kg/injection, schedule: Q04DX003 (ip), vehicle: saline
[9] = dose: 400.0 mg/kg/injection, schedule: Q04DX003 (ip), vehicle: saline
[10] = dose: 100.0 mg/kg/injection, schedule: Q01DX009 (ip), vehicle: Klucel (hydroxypropylcellulose) (HPC)
[11] = dose: 200.0 mg/kg/injection, schedule: Q01DX009 (ip), vehicle: Klucel (hydroxypropylcellulose) (HPC)
[12] = dose: 200.0 mg/kg/injection, schedule: Q01DX009 (ip), vehicle: saline
[13] = dose: 400.0 mg/kg/injection, schedule: Q01DX009 (ip), vehicle: saline
[14] = dose: 100.0 mg/kg/injection, schedule: Q01DX009 (ip), vehicle: saline
[15] = dose: 100.0 mg/kg/injection, schedule: Q01DX001 (ip), vehicle: Klucel (hydroxypropylcellulose) (HPC)
[16] = dose: 200.0 mg/kg/injection, schedule: Q01DX001 (ip), vehicle: Klucel (hydroxypropylcellulose) (HPC)
[17] = dose: 400.0 mg/kg/injection, schedule: Q01DX001 (ip), vehicle: Klucel (hydroxypropylcellulose) (HPC)

With O=[N+]([O-])c1ccc(C2=NCCS2)cc1 the T/C (dose: 87.0 mg/kg/injection, schedule: Q04DX003 (ip), vehicle: Klucel (hydroxypropylcellulose) (HPC)) was 102 % of control, the T/C (dose: 175.0 mg/kg/injection, schedule: Q04DX003 (ip), vehicle: Klucel (hydroxypropylcellulose) (HPC)) was 102 % of control and the T/C (dose: 350.0 mg/kg/injection, schedule: Q04DX003 (ip), vehicle: Klucel (hydroxypropylcellulose) (HPC)) was 102 % of control.
With COc1ccc(N2c3ccccc3-c3cc[nH]c(=O)c3[C@H]2O)cc1OC the T/C (dose: 12.5 mg/kg/injection, schedule: Q04DX003 (ip), vehicle: saline) was 93 % of control, the T/C (dose: 25.0 mg/kg/injection, schedule: Q04DX003 (ip), vehicle: saline) was 101 % of control and the T/C (dose: 50.0 mg/kg/injection, schedule: Q04DX003 (ip), vehicle: saline) was 91 % of control. For the same compound, the T/C (dose: 75.0 mg/kg/injection, schedule: Q04DX003 (ip), vehicle: saline) was 99 % of control, the T/C (dose: 115.0 mg/kg/injection, schedule: Q04DX003 (ip), vehicle: saline) was 105 % of control and the T/C (dose: 170.0 mg/kg/injection, schedule: Q04DX003 (ip), vehicle: saline) was 94 % of control.
For CCOC(=O)CN=CC1CCC=CO1 (stereo unspecified), the T/C [1] was 97 % of control, the T/C (dose: 100.0 mg/kg/injection, schedule: Q04DX003 (ip), vehicle: saline with Tween-80) was 93 % of control and the T/C [2] was 103 % of control. The T/C (dose: 200.0 mg/kg/injection, schedule: Q04DX003 (ip), vehicle: saline with Tween-80) was 95 % of control, the T/C [3] was 108 % of control and the T/C (dose: 400.0 mg/kg/injection, schedule: Q04DX003 (ip), vehicle: saline with Tween-80) was 93 % of control.
For CCOC(=O)C(=O)CC(=O)/C=C/c1ccccc1, the T/C [1] was 96 % of control, the T/C [4] was 101 % of control and the T/C [2] was 101 % of control. The T/C [5] was 98 % of control, the T/C [3] was 98 % of control and the T/C [6] was 101 % of control.
In the case of Br/C=C/C1=CCCCC1, the T/C (dose: 100.0 mg/kg/injection, schedule: Q01DX009 (ip), vehicle: acetone) is reported as 98 % of control, the T/C [7] is reported as 97 % of control and the T/C (dose: 200.0 mg/kg/injection, schedule: Q01DX009 (ip), vehicle: acetone) is reported as 90 % of control. The T/C [8] was 92 % of control and the T/C [9] was 114 % of control.
NCC(=O)NC1(C(=O)O)C2CC3CC(C2)CC1C3 (stereo unspecified) was tested, and the T/C (dose: 25.0 mg/kg/injection, schedule: Q01DX009 (ip), vehicle: Klucel (hydroxypropylcellulose) (HPC)) was 96 % of control, the T/C (dose: 50.0 mg/kg/injection, schedule: Q01DX009 (ip), vehicle: Klucel (hydroxypropylcellulose) (HPC)) was 94 % of control and the T/C [10] was 94 % of control and 96 % of control. The T/C [11] was 103 % of control and the T/C (dose: 400.0 mg/kg/injection, schedule: Q01DX009 (ip), vehicle: Klucel (hydroxypropylcellulose) (HPC)) was 103 % of control.
In the case of CNC(=O)N1CC(C)OC(C)C1 (stereo unspecified), the T/C [7] is reported as 115 % of control, the T/C [12] is reported as 92 % of control and the T/C [8] is reported as 105 % of control. For the same compound, the T/C [13] was 107 % of control and the T/C [9] was 101 % of control.
CCC(COC(C)=O)(COC(C)=O)[N+](=O)[O-] was tested, and the T/C [4] was 103 % of control, the T/C [5] was 98 % of control and the T/C [6] was 101 % of control.
With CCCC(=O)N1CC(C)OC(C)C1 (stereo unspecified) the T/C (dose: 100.0 mg/kg/injection, schedule: Q01DX001 (ip), vehicle: saline) was 100 % of control, the T/C [14] was 98 % of control and 104 % of control and the T/C (dose: 100.0 mg/kg/injection, schedule: Q04DX002 (ip), vehicle: saline) was 109 % of control. For the same compound, the T/C [7] was 98 % of control, the T/C (dose: 200.0 mg/kg/injection, schedule: Q01DX001 (ip), vehicle: saline) was 93 % of control and the T/C [12] was 100 % of control and 104 % of control. For the same compound, the T/C (dose: 200.0 mg/kg/injection, schedule: Q04DX002 (ip), vehicle: saline) was 115 % of control, the T/C [8] was 104 % of control and the T/C (dose: 400.0 mg/kg/injection, schedule: Q01DX001 (ip), vehicle: saline) was 104 % of control. For the same compound, the T/C [13] was 96 % of control and 107 % of control, the T/C (dose: 400.0 mg/kg/injection, schedule: Q04DX002 (ip), vehicle: saline) was 102 % of control and the T/C [9] was 100 % of control.
For COc1ccc(/C=C(\C(=O)c2ccc(O)cc2)c2ccccc2)cc1OC, the T/C (dose: 100.0 mg/kg/injection, schedule: Q01DX001 (ip), vehicle: carboxymethylcellulose (CMC)) was 94 % of control, the T/C (dose: 200.0 mg/kg/injection, schedule: Q01DX001 (ip), vehicle: carboxymethylcellulose (CMC)) was 89 % of control and the T/C (dose: 400.0 mg/kg/injection, schedule: Q01DX001 (ip), vehicle: carboxymethylcellulose (CMC)) was 89 % of control.
NNc1ccc(Cl)c(S(=O)(=O)O)c1 was tested, and the T/C [14] was 100 % of control, the T/C (dose: 100.0 mg/kg/injection, schedule: Q04DX003 (ip), vehicle: alcohol) was 98 % of control and the T/C [12] was 100 % of control. For the same compound, the T/C (dose: 200.0 mg/kg/injection, schedule: Q04DX003 (ip), vehicle: alcohol) was 104 % of control, the T/C [13] was 103 % of control and the T/C (dose: 400.0 mg/kg/injection, schedule: Q04DX003 (ip), vehicle: alcohol) was 106 % of control.
OC(c1ccccc1)C1(N2CCCCC2)CCCCC1 (stereo unspecified) was tested, and the T/C [15] was 94 % of control, the T/C [16] was 100 % of control and the T/C [17] was 96 % of control.
For CC(=O)OC1CCC2(C)C(=CCC3C2CCC2(C)C(C(C)C(N)=O)CCC32)C1 (stereo unspecified), the T/C [15] was 90 % of control and 91 % of control, the T/C [16] was 94 % of control and 91 % of control and the T/C [17] was 87 % of control and 100 % of control.
In the case of OC1C2CC3C(C2)C13 (stereo unspecified), the T/C [14] is reported as 102 % of control, the T/C [12] is reported as 96 % of control and the T/C [13] is reported as 98 % of control.
With CC1(CCl)OCCO1 the T/C [10] was 91 % of control, the T/C [4] was 100 % of control and the T/C [11] was 96 % of control. For the same compound, the T/C [5] was 101 % of control and the T/C [6] was 98 % of control.
Cc1ccccc1N=Nc1c(O)n(-c2ccc(Br)cc2)c(=S)n(-c2ccccc2)c1=O was tested, and the T/C (dose: 37.5 mg/kg/injection, schedule: Q01DX001 (ip), vehicle: Klucel (hydroxypropylcellulose) (HPC)) was 101 % of control, the T/C (dose: 75.0 mg/kg/injection, schedule: Q01DX001 (ip), vehicle: Klucel (hydroxypropylcellulose) (HPC)) was 101 % of control and the T/C (dose: 150.0 mg/kg/injection, schedule: Q01DX001 (ip), vehicle: Klucel (hydroxypropylcellulose) (HPC)) was 101 % of control.
With O=C(/C=C\c1ccccc1Cl)c1ccccc1 the T/C (dose: 100.0 mg/kg/injection, schedule: Q04DX002 (ip), vehicle: gum acacia) was 98 % of control, the T/C (dose: 200.0 mg/kg/injection, schedule: Q04DX002 (ip), vehicle: gum acacia) was 95 % of control and the T/C (dose: 400.0 mg/kg/injection, schedule: Q04DX002 (ip), vehicle: gum acacia) was 113 % of control.
For CCCCCCCC/C=C\CCCCCCCC(=O)OCCCCCCCC, the T/C [15] was 97 % of control, the T/C (dose: 100.0 mg/kg/injection, schedule: Q01DX009 (ip), vehicle: saline sonified) was 102 % of control and the T/C [16] was 98 % of control. For the same compound, the T/C (dose: 200.0 mg/kg/injection, schedule: Q01DX009 (ip), vehicle: saline sonified) was 98 % of control, the T/C [17] was 92 % of control and the T/C (dose: 400.0 mg/kg/injection, schedule: Q01DX009 (ip), vehicle: saline sonified) was 105 % of control.
C=CCN(CC=C)P(=O)(N1CC1)N1CC1C (stereo unspecified) was tested, and the T/C (dose: 0.37 mg/kg/injection, schedule: Q01DX015 (ip), vehicle: carboxymethylcellulose (CMC)) was 117 % of control, the T/C (dose: 6.0 mg/kg/injection, schedule: Q01DX009 (ip), vehicle: saline) was 90 % of control and the T/C (dose: 10.0 mg/kg/injection, schedule: Q01DX001 (ip), vehicle: saline) was 162 % of control.
For CN(C)CCOC(=O)N1c2ccccc2C(C)(C)c2ccccc21, the T/C (dose: 5.8 mg/kg/injection, schedule: Q01DX001 (ip), vehicle: water) was 93 % of control, the T/C (dose: 11.5 mg/kg/injection, schedule: Q01DX001 (ip), vehicle: water) was 98 % of control and the T/C (dose: 23.0 mg/kg/injection, schedule: Q01DX001 (ip), vehicle: water) was 91 % of control. The T/C (dose: 44.4 mg/kg/injection, schedule: Q01DX001 (ip), vehicle: water) was 95 % of control, the T/C (dose: 50.0 mg/kg/injection, schedule: Q01DX001 (ip), vehicle: water) was 100 % of control and the T/C (dose: 66.7 mg/kg/injection, schedule: Q01DX001 (ip), vehicle: water) was 97 % of control. For the same compound, the T/C (dose: 150.0 mg/kg/injection, schedule: Q01DX001 (ip), vehicle: water) was 95 % of control.
